system: COG-LL-319h; experiment: selective drug sensitivity score (sDSS, relative to normal bone marrow) (sDSS (score)); higher = more potent and effective on the cell line relative to normal bone marrow cells; settings: 72 h
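Note: ALL cell lines in 384-well plates, five doses spanning 10,000-fold, each plate scaled between vehicle and 100 µmol/L benzalkonium chloride controls, sDSS an adapted area-under-curve metric.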

Point of comparison: `Cn1cc(-c2ccc(F)c(C(F)(F)F)c2)nc1C1CCN(c2ncnc3[nH]ncc23)CC1` (top concentration 10000 nM), “selective drug sensitivity score” value 3.76. Against it:
- O=C(Nc1ccc2[nH]nc(-c3ccncc3)c2c1)[C@@H]1CCN(CC(=O)N2CCN(c3ccc(-c4ncccn4)cc3)CC2)C1 (top concentration 10000 nM) — lower, 2.16
- CC(C)(C)c1cc(NC(=O)Nc2ccc(Oc3ccnc4[nH]c(=O)cnc34)cc2F)n(-c2ccccc2)n1 (top concentration 25000 nM) — lower, -1.08
- Nc1ncnc2c1nc(N)n2[C@@H]1O[C@H](CO)[C@@H](O)[C@H]1O [8-amino-adenosine] (top concentration 50000 nM) — higher, 6.78
- CC(C)[C@@H](CS(=O)(=O)C(C)C)N1C(=O)[C@@](C)(CC(=O)O)C[C@H](c2cccc(Cl)c2)[C@H]1c1ccc(Cl)cc1 [AMG-232] (top concentration 10000 nM) — higher, 11.4
- CC(C)[C@H](C(=O)Nc1ccc(C(=O)NO)cc1)c1ccccc1 [AR-42] (top concentration 10000 nM) — higher, 10.8
- O=C(Nc1c[nH]nc1-c1nc2ccc(CN3CCOCC3)cc2[nH]1)NC1CC1 [AT9283] (top concentration 1000 nM) — higher, 11.3
- CCN(CCO)CCCOc1ccc2c(Nc3cc(CC(=O)Nc4cccc(F)c4)[nH]n3)ncnc2c1 [AZD1152-HQPA] (top concentration 1000 nM) — higher, 24.2
- Cc1[nH]nc(C(F)(F)F)c1Cc1sc2c(c1C(=O)N1C[C@](C)(O)CO1)c(=O)n(C)c(=O)n2C(C)C [AZD3965] (top concentration 1000 nM) — lower, 0

system: ALL-PO; experiment: as above; settings: 72 h

Point of comparison: `CC(C)(C)c1cc(NC(=O)Nc2ccc(Oc3ccnc4[nH]c(=O)cnc34)cc2F)n(-c2ccccc2)n1` (top concentration 25000 nM), “selective drug sensitivity score” value 5.72. Against it:
- COC12C(COC(N)=O)C3=C(C(=O)C(C)=C(N)C3=O)N1CC1NC12 (stereo in doubt) [Mitomycin_C] (top concentration 10000 nM) — lower, -0.76
- Cc1c(-c2c(-c3ccc(F)o3)sc3ncnc(O[C@H](Cc4ccccc4OCc4ccnn4CC(F)(F)F)C(=O)O)c23)ccc(OCCN2CCN(C)CC2)c1Cl (top concentration 1000 nM) — lower, -7.74
- Cc1ncc(Cl)cc1NCc1ccc(C(=O)N[C@@H](CC2CCCC2)C(=O)NC2CC2)s1 (top concentration 5000 nM) — lower, -0.94
- CCn1c(-c2nonc2N)nc2c(C#CC(C)(C)O)ncc(OC[C@H]3CCCNC3)c21 (top concentration 10000 nM) — higher, 8.18
- CN(c1ncccc1CNc1nc(Nc2ccc3c(c2)CC(=O)N3)ncc1C(F)(F)F)S(C)(=O)=O (top concentration 10000 nM) — higher, 6.62
- CNc1ncc2cc(-c3cc(NC(=O)NCCC(C)(C)C)c(F)cc3C)c(C)nc2n1 (top concentration 10000 nM) — lower, 4.86
- C[C@@]1(C(=O)Nc2ccc(F)nc2)CCCN1c1nc(Nc2cc(C3CC3)n[nH]2)c2cccn2n1 (top concentration 10000 nM) — higher, 13
- Cc1nc(Nc2n[nH]c3c2CN(C(=O)N[C@H](CN(C)C)c2ccccc2)C3(C)C)c2sccc2n1 (top concentration 10000 nM) — lower, 5.58
- Cn1cc(-c2[nH]c3cc(NC(=O)[C@H](N)C4CCCCC4)cc4c3c2C=NNC4=O)cn1 (top concentration 10000 nM) — higher, 9.28
- Cn1cc(-c2ccc(F)c(C(F)(F)F)c2)nc1C1CCN(c2ncnc3[nH]ncc23)CC1 (top concentration 10000 nM) — lower, 0.66
- O=C(Nc1ccc2[nH]nc(-c3ccncc3)c2c1)[C@@H]1CCN(CC(=O)N2CCN(c3ccc(-c4ncccn4)cc3)CC2)C1 (top concentration 10000 nM) — lower, 3.76
- Nc1ncnc2c1nc(N)n2[C@@H]1O[C@H](CO)[C@@H](O)[C@H]1O [8-amino-adenosine] (top concentration 50000 nM) — lower, 5.48
- CC(C)[C@@H](CS(=O)(=O)C(C)C)N1C(=O)[C@@](C)(CC(=O)O)C[C@H](c2cccc(Cl)c2)[C@H]1c1ccc(Cl)cc1 [AMG-232] (top concentration 10000 nM) — lower, -6.94
- CC(C)[C@H](C(=O)Nc1ccc(C(=O)NO)cc1)c1ccccc1 [AR-42] (top concentration 10000 nM) — higher, 10.7
- O=C(Nc1c[nH]nc1-c1nc2ccc(CN3CCOCC3)cc2[nH]1)NC1CC1 [AT9283] (top concentration 1000 nM) — higher, 6.32
- CCN(CCO)CCCOc1ccc2c(Nc3cc(CC(=O)Nc4cccc(F)c4)[nH]n3)ncnc2c1 [AZD1152-HQPA] (top concentration 1000 nM) — higher, 7.64
- Cc1[nH]nc(C(F)(F)F)c1Cc1sc2c(c1C(=O)N1C[C@](C)(O)CO1)c(=O)n(C)c(=O)n2C(C)C [AZD3965] (top concentration 1000 nM) — lower, 3.8

system: MHH-CALL-3; experiment: as above; settings: 72 h

Point of comparison: `CCn1c(-c2nonc2N)nc2c(C#CC(C)(C)O)ncc(OC[C@H]3CCCNC3)c21` (top concentration 10000 nM), “selective drug sensitivity score” value 3.38. Against it:
- COC12C(COC(N)=O)C3=C(C(=O)C(C)=C(N)C3=O)N1CC1NC12 (stereo in doubt) [Mitomycin_C] (top concentration 10000 nM) — lower, -2.86
- Cc1c(-c2c(-c3ccc(F)o3)sc3ncnc(O[C@H](Cc4ccccc4OCc4ccnn4CC(F)(F)F)C(=O)O)c23)ccc(OCCN2CCN(C)CC2)c1Cl (top concentration 1000 nM) — lower, 1.56
- Cc1ncc(Cl)cc1NCc1ccc(C(=O)N[C@@H](CC2CCCC2)C(=O)NC2CC2)s1 (top concentration 5000 nM) — higher, 8.26
- CN(c1ncccc1CNc1nc(Nc2ccc3c(c2)CC(=O)N3)ncc1C(F)(F)F)S(C)(=O)=O (top concentration 10000 nM) — higher, 4.82
- CNc1ncc2cc(-c3cc(NC(=O)NCCC(C)(C)C)c(F)cc3C)c(C)nc2n1 (top concentration 10000 nM) — higher, 8.66
- C[C@@]1(C(=O)Nc2ccc(F)nc2)CCCN1c1nc(Nc2cc(C3CC3)n[nH]2)c2cccn2n1 (top concentration 10000 nM) — lower, 3.28
- Cc1nc(Nc2n[nH]c3c2CN(C(=O)N[C@H](CN(C)C)c2ccccc2)C3(C)C)c2sccc2n1 (top concentration 10000 nM) — lower, 0.18
- Cn1cc(-c2[nH]c3cc(NC(=O)[C@H](N)C4CCCCC4)cc4c3c2C=NNC4=O)cn1 (top concentration 10000 nM) — lower, 0.38
- Cn1cc(-c2ccc(F)c(C(F)(F)F)c2)nc1C1CCN(c2ncnc3[nH]ncc23)CC1 (top concentration 10000 nM) — higher, 5.16
- O=C(Nc1ccc2[nH]nc(-c3ccncc3)c2c1)[C@@H]1CCN(CC(=O)N2CCN(c3ccc(-c4ncccn4)cc3)CC2)C1 (top concentration 10000 nM) — higher, 7.16
- CC(C)(C)c1cc(NC(=O)Nc2ccc(Oc3ccnc4[nH]c(=O)cnc34)cc2F)n(-c2ccccc2)n1 (top concentration 25000 nM) — lower, -3.58
- Nc1ncnc2c1nc(N)n2[C@@H]1O[C@H](CO)[C@@H](O)[C@H]1O [8-amino-adenosine] (top concentration 50000 nM) — higher, 5.38
- CC(C)[C@@H](CS(=O)(=O)C(C)C)N1C(=O)[C@@](C)(CC(=O)O)C[C@H](c2cccc(Cl)c2)[C@H]1c1ccc(Cl)cc1 [AMG-232] (top concentration 10000 nM) — higher, 12.6
- CC(C)[C@H](C(=O)Nc1ccc(C(=O)NO)cc1)c1ccccc1 [AR-42] (top concentration 10000 nM) — higher, 14.3
- O=C(Nc1c[nH]nc1-c1nc2ccc(CN3CCOCC3)cc2[nH]1)NC1CC1 [AT9283] (top concentration 1000 nM) — higher, 10.4
- CCN(CCO)CCCOc1ccc2c(Nc3cc(CC(=O)Nc4cccc(F)c4)[nH]n3)ncnc2c1 [AZD1152-HQPA] (top concentration 1000 nM) — higher, 5.24
- Cc1[nH]nc(C(F)(F)F)c1Cc1sc2c(c1C(=O)N1C[C@](C)(O)CO1)c(=O)n(C)c(=O)n2C(C)C [AZD3965] (top concentration 1000 nM) — lower, 0
